Experiments:
Test in all cases: radiometric filter-binding kinase assay
MYLK (human) = MYLK (human) (UniProt Q15746)
MAPKAPK3 (human) = MAPKAPK3 (human) (UniProt Q16644)
EEF2K (human) = EEF2K (human) (UniProt O00418)
CSNK2A1 (human) = CSNK2A1 (human) (UniProt P68400)
NTRK1 (human) = NTRK1 (human) (UniProt P04629)
PRKCZ (human) = PRKCZ (human) (UniProt Q05513)
GSK3B (human) = GSK3B (human) (UniProt P49841)
FGFR1 (human) = FGFR1 (human) (UniProt P11362)
PHKG1 (human) = PHKG1 (human) (UniProt Q16816)
EPHB3 (human) = EPHB3 (human) (UniProt P54753)
PRKAA1 or PRKAA2 (rat) = conditions: accession and sequence are those of the human protein
RPS6KA1 KD1 KD2 (human) = RPS6KA1 KD1 KD2 (human) (UniProt Q15418)
MAP3K9 (human) = MAP3K9 (human) (UniProt P80192)
MAPK1 (human) = MAPK1 (human) (UniProt P28482)
ERBB4 (human) = ERBB4 (human) (UniProt Q15303)
MARK4 (human) = MARK4 (human) (UniProt Q96L34)
AURKB (human) = AURKB (human) (UniProt Q96GD4)
PRKACA (human) = PRKACA (human) (UniProt P17612)
CDK2 CCNA2 (human) = CDK2 CCNA2 (human) (UniProt P20248+P24941)
TTK (human) = TTK (human) (UniProt P33981)
CSK (human) = CSK (human) (UniProt P41240)
CHEK2 (human) = CHEK2 (human) (UniProt O96017)
SRC (human) = SRC (human) (UniProt P12931)
LCK (mouse) = conditions: accession and sequence are those of the human protein
DAPK1 (human) = DAPK1 (human) (UniProt P53355)
MKNK1 (human) = MKNK1 (human) (UniProt Q9BUB5)
MINK1 (human) = MINK1 (human) (UniProt Q8N4C8)
INSRR (human) = INSRR (human) (UniProt P14616)
ROCK2 (rat) = conditions: accession and sequence are those of the human protein
IKBKB (human) = IKBKB (human) (UniProt O14920)
MELK (human) = MELK (human) (UniProt Q14680)
MAPK13 (human) = MAPK13 (human) (UniProt O15264); conditions: compound 1.0 µM
MKNK2 (human) = MKNK2 (human) (UniProt Q9HBH9)
[1] = biological target: STK11 CAB39 STRADA (human) (UniProt Q9Y376+Q7RTN6+Q15831)

Chain of TTK (human) (P33981 whole entry, looked up): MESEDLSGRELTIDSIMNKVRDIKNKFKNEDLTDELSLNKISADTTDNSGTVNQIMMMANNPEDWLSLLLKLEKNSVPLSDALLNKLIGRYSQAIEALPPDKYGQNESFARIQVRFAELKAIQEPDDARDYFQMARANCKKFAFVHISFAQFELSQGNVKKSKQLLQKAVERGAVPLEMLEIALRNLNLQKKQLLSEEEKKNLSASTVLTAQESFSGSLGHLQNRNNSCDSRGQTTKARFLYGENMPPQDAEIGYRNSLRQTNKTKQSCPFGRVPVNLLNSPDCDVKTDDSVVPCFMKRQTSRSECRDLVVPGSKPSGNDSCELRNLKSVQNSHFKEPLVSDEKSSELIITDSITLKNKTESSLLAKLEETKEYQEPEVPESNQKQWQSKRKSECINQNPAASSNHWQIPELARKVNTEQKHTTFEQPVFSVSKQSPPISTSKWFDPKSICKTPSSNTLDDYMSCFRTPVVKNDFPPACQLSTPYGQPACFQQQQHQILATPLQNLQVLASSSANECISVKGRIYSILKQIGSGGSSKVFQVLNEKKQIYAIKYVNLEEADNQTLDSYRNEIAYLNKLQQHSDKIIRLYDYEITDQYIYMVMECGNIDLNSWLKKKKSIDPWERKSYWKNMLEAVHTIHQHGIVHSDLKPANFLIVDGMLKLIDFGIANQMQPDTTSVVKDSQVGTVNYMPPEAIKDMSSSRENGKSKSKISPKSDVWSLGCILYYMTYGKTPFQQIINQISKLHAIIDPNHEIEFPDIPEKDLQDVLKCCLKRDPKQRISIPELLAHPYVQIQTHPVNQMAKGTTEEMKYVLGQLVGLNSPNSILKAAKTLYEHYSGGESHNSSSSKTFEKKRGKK
Chain of MYLK (human) (Q15746 whole entry, looked up): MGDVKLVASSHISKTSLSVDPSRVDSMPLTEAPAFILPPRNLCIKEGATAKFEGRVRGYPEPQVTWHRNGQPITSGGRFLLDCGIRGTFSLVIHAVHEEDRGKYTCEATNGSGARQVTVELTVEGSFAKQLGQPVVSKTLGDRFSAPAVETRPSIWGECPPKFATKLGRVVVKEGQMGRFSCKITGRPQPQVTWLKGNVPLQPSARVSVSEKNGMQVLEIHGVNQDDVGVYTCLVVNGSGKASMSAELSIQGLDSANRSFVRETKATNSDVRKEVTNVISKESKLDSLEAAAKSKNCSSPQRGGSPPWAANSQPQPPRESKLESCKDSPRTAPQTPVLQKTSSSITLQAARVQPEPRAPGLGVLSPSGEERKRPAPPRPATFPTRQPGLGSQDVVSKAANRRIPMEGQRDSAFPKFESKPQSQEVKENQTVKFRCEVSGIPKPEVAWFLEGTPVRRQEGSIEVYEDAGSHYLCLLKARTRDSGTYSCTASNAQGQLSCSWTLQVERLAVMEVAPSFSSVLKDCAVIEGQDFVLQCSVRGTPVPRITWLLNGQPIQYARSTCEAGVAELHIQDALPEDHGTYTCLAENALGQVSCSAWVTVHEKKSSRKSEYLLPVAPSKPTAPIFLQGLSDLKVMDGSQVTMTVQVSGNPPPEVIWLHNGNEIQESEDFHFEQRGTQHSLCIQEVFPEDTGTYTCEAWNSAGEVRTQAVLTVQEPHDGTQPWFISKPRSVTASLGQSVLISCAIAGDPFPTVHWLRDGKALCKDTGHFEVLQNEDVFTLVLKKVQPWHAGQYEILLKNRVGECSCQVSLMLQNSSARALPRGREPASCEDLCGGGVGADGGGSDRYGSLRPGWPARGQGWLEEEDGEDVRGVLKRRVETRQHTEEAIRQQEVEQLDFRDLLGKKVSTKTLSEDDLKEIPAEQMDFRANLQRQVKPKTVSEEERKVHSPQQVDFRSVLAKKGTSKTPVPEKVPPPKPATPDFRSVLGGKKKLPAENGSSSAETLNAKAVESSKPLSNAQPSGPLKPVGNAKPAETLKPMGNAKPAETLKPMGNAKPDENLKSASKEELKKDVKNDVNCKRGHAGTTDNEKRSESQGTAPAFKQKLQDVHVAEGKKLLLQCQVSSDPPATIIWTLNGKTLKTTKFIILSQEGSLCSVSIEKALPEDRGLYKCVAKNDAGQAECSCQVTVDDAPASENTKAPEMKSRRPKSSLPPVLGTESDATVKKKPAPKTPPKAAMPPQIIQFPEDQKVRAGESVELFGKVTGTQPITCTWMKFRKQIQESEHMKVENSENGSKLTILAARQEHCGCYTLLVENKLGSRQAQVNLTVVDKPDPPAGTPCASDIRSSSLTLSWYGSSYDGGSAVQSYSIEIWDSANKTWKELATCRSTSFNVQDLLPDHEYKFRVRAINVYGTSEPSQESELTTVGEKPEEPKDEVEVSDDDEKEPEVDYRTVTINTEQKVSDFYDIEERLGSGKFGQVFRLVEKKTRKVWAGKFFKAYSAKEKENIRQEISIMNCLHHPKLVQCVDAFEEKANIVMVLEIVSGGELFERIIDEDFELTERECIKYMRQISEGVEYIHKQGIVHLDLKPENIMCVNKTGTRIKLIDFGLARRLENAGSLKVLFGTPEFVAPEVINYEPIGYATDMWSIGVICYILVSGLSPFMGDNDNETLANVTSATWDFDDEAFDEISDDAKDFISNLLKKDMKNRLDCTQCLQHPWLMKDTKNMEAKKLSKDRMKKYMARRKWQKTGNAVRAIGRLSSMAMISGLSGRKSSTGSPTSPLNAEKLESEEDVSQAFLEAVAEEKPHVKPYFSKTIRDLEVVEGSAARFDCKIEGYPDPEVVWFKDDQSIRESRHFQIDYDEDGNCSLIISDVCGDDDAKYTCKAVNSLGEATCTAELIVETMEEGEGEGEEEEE
Chain of AURKB (human) (Q96GD4 whole entry, looked up): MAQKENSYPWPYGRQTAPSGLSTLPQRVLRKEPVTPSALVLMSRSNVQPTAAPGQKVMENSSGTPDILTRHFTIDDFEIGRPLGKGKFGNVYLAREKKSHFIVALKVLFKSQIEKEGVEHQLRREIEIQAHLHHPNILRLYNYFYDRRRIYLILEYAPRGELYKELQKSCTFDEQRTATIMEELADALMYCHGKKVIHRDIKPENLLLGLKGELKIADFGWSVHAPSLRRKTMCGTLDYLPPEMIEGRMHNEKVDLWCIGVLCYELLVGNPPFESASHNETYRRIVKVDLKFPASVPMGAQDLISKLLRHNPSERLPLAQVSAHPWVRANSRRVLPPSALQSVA
Chain of CSNK2A1 (human) (P68400 whole entry, looked up): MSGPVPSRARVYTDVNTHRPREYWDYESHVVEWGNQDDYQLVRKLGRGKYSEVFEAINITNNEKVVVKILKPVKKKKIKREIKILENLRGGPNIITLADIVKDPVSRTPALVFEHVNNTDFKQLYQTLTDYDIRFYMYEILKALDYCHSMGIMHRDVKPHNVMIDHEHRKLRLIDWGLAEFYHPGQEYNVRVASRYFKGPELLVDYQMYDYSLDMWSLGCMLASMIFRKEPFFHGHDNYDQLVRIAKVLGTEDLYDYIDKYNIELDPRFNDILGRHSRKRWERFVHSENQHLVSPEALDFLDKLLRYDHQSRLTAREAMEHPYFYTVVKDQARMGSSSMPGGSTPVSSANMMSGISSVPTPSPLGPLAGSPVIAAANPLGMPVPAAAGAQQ
Chain of CHEK2 (human) (O96017 whole entry, looked up): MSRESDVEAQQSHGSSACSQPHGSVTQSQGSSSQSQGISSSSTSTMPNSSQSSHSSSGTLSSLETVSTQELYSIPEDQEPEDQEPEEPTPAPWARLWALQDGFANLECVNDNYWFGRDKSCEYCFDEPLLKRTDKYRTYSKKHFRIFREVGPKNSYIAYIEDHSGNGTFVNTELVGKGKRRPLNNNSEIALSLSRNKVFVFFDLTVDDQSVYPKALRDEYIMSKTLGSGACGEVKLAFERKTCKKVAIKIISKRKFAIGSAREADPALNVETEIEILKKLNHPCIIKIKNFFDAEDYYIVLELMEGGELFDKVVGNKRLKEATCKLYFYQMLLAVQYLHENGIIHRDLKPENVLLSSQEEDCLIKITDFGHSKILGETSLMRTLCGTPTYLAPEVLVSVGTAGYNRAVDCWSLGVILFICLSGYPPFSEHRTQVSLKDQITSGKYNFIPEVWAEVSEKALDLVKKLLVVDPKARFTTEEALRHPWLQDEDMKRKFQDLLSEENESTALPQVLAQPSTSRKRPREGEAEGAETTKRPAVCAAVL
Chain of CSK (human) (P41240 whole entry, looked up): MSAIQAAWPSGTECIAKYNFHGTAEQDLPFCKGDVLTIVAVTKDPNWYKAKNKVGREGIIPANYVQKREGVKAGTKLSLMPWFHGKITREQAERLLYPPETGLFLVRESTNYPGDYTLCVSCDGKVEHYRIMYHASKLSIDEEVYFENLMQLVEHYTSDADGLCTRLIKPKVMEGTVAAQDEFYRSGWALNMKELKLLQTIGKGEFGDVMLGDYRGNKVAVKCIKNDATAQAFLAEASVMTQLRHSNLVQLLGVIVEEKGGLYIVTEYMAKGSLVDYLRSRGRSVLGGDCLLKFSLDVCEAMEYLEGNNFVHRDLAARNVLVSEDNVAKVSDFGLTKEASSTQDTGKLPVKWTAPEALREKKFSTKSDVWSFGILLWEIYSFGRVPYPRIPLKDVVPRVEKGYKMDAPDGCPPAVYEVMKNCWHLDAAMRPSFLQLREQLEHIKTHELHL
Chain of MAPK1 (human) (P28482 whole entry, looked up): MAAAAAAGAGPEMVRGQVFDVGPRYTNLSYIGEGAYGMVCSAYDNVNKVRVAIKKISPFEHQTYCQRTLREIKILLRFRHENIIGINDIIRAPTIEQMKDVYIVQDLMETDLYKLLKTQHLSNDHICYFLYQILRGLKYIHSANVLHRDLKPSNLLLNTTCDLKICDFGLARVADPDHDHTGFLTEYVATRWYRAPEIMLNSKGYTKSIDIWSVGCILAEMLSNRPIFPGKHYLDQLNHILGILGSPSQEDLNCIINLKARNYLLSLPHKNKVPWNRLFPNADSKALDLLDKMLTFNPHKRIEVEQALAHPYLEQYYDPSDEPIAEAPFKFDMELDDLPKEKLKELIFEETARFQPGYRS

Cc1cccc(-c2nn(C(=S)Nc3ccccc3)cc2-c2ccnc3ccccc23)n1
residual activity (MYLK (human); compound 0.1 µM): 104% | residual activity (MYLK (human); compound 1.0 µM): 89% | residual activity (MAPKAPK3 (human); compound 0.1 µM): 107% | residual activity (MAPKAPK3 (human); compound 1.0 µM): 97% | residual activity (EEF2K (human); compound 0.1 µM): 102% | residual activity (EEF2K (human); compound 1.0 µM): 100% | residual activity (CSNK2A1 (human); compound 0.1 µM): 102% | residual activity (CSNK2A1 (human); compound 1.0 µM): 104% | residual activity (NTRK1 (human); compound 0.1 µM): 118% | residual activity (NTRK1 (human); compound 1.0 µM): 99% | residual activity (PRKCZ (human); compound 0.1 µM): 98% | residual activity (PRKCZ (human); compound 1.0 µM): 100% | residual activity (GSK3B (human); compound 0.1 µM): 99% | residual activity (GSK3B (human); compound 1.0 µM): 79% | residual activity (FGFR1 (human); compound 0.1 µM): 64% | residual activity (FGFR1 (human); compound 1.0 µM): 37% | residual activity (PHKG1 (human); compound 0.1 µM): 100% | residual activity (PHKG1 (human); compound 1.0 µM): 112% | residual activity (EPHB3 (human); compound 0.1 µM): 112% | residual activity (EPHB3 (human); compound 1.0 µM): 104% | residual activity (PRKAA1 or PRKAA2 (rat); compound 0.1 µM): 99% | residual activity (PRKAA1 or PRKAA2 (rat); compound 1.0 µM): 82% | residual activity (RPS6KA1 KD1 KD2 (human); compound 0.1 µM): 110% | residual activity (RPS6KA1 KD1 KD2 (human); compound 1.0 µM): 95% | residual activity (MAP3K9 (human); compound 0.1 µM): 96% | residual activity (MAP3K9 (human); compound 1.0 µM): 86% | residual activity (MAPK1 (human); compound 0.1 µM): 104% | residual activity (MAPK1 (human); compound 1.0 µM): 94% | residual activity (ERBB4 (human); compound 0.1 µM): 104% | residual activity (ERBB4 (human); compound 1.0 µM): 82% | residual activity (MARK4 (human); compound 0.1 µM): 98% | residual activity (MARK4 (human); compound 1.0 µM): 87% | residual activity (AURKB (human); compound 0.1 µM): 98% | residual activity (AURKB (human); compound 1.0 µM): 102% | residual activity (PRKACA (human); compound 0.1 µM): 109% | residual activity (PRKACA (human); compound 1.0 µM): 99% | residual activity (CDK2 CCNA2 (human); compound 0.1 µM): 93% | residual activity (CDK2 CCNA2 (human); compound 1.0 µM): 102% | residual activity (TTK (human); compound 0.1 µM): 113% | residual activity (TTK (human); compound 1.0 µM): 98% | residual activity (CSK (human); compound 0.1 µM): 97% | residual activity (CSK (human); compound 1.0 µM): 93% | residual activity (CHEK2 (human); compound 0.1 µM): 115% | residual activity (CHEK2 (human); compound 1.0 µM): 110% | residual activity (SRC (human); compound 0.1 µM): 102% | residual activity (SRC (human); compound 1.0 µM): 75% | residual activity (LCK (mouse); compound 0.1 µM): 105% | residual activity (LCK (mouse); compound 1.0 µM): 62% | residual activity (DAPK1 (human); compound 0.1 µM): 94% | residual activity (DAPK1 (human); compound 1.0 µM): 90% | residual activity (MKNK1 (human); compound 0.1 µM): 103% | residual activity (MKNK1 (human); compound 1.0 µM): 93% | residual activity (MINK1 (human); compound 0.1 µM): 66% | residual activity (MINK1 (human); compound 1.0 µM): 13% | residual activity (INSRR (human); compound 0.1 µM): 98% | residual activity (INSRR (human); compound 1.0 µM): 103% | residual activity (ROCK2 (rat); compound 0.1 µM): 96% | residual activity (ROCK2 (rat); compound 1.0 µM): 104% | residual activity (IKBKB (human); compound 0.1 µM): 107% | residual activity (IKBKB (human); compound 1.0 µM): 100% | residual activity (MELK (human); compound 0.1 µM): 111% | residual activity (MELK (human); compound 1.0 µM): 105% | residual activity (MAPK13 (human)): 94% | residual activity (MKNK2 (human); compound 0.1 µM): 81% | residual activity (MKNK2 (human); compound 1.0 µM): 91% | residual activity ([1]; compound 0.1 µM): 101% | residual activity ([1]; compound 1.0 µM): 99%

From the kinase profiling compilation of Christmann-Franck et al. (2016)
